Experimental data published in publication PMC3715888, “A Fully Unsupervised Compartment-on-Demand Platform for Precise Nanoliter Assays of Time-Dependent Steady-State Enzyme Kinetics and Inhibition” (Analytical Chemistry, 2013).
Structures can show the parent of a compound that is named as a salt.

Biological target: sweet almond β-glucosidase
Assay: droplet absorbance assay of 4-nitrophenyl glucopyranoside hydrolysis ([…] nm); IC50 […] converted to Ki by Cheng-Prusoff
Format: biochemical, Prunus dulcis

Ki: ~36 µM
SMILES: OC[C@H]1NC[C@H](O)[C@@H](O)[C@@H]1O [DNM, 1-deoxynojirimycin hydrochloride]
